Experimental data from patent EP0104041B1, “Enzyme inhibitors” (priority 1982, dated 1984).
Non-standard residues stand in square brackets, D forms with d. Residues, ends and D or L forms follow the SMILES beside them. Sta = CC(C)C[C@H](N)[C@@H](O)CC(=O)O

What was measured:
human renin = biological target: T1, human renin (Homo sapiens, UniProt P00797); test: renin inhibition, methods of the applicants' published European specification (0 045 665); assay type: biochemical; conditions: against human renin
T1 sequence (P00797 67-406): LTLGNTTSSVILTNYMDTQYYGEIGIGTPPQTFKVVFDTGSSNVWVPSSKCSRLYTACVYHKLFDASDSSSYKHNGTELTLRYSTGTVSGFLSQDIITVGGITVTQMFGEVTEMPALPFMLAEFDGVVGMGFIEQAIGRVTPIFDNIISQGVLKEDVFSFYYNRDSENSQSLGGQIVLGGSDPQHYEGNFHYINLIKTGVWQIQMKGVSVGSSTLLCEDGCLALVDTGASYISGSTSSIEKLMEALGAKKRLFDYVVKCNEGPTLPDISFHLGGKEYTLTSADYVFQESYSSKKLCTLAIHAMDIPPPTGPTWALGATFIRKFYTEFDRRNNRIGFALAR
Text: (§1) This compound is the subject of Example 1 below.

baboon renin = test: renin inhibition, baboon renin; assay type: biochemical; conditions: against baboon renin; preliminary results
Text: as §1

Structure (SMILES) | IC50 (human renin) [nM] | IC50 (human renin; preliminary results) [nM] | IC50 (baboon renin) [nM]
CC[C@H](C)[C@H](NC(=O)[C@@H](NC(=O)C[C@H](O)[C@H](CC(C)C)NC(=O)[C@H](Cc1c[nH]cn1)NC(=O)[C@H](Cc1ccccc1)NC(=O)[C@@H]1CCCN1C(=O)[C@@H](N)Cc1c[nH]cn1)C(C)C)C(=O)N[C@@H](Cc1c[nH]cn1)C(=O)O [Example 1] (H-HPFH[Sta]VIH-OH) | 16 |  | 
CC[C@H](C)[C@H](NC(=O)[C@@H](NC(=O)C[C@H](O)[C@H](CC(C)C)NC(=O)[C@H](Cc1c[nH]cn1)NC(=O)[C@H](Cc1ccccc1)NC(=O)[C@@H]1CCCN1C(=O)[C@H](Cc1c[nH]cn1)NC(=O)[C@@H]1CCCN1)C(C)C)C(=O)N[C@@H](Cc1c[nH]cn1)C(=O)N[C@@H](CCCCN)C(=O)O [Example H-189] (H-PHPFH[Sta]VIHK-OH) |  | 9 | 12
